Measurements from PubChem BioAssay (NCI).
Several values for one entry are separate records, joined by “and”; a condition that tells them apart may be missing. Equal entries are not always repeated.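 Method: 48-hour compound exposure of cells in 96-well plates, five concentrations, linear interpolation of endpoints. Abbreviation: GI50, concentration required for 50% inhibition of growth. Definition used: TGI = concentration required for complete inhibition of growth.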

Key:
Test in all cases: NCI tumour cell line growth inhibition, 48 h
LXFL 529 NSCLC = test system: LXFL 529 NSCLC
SNB-78 CNS = test system: SNB-78 CNS
M19-MEL melanoma = test system: M19-MEL melanoma
U251 CNS = test system: U251 CNS
DMS 114 small cell lung = test system: DMS 114 small cell lung
DLD-1 colon = test system: DLD-1 colon
HOP-18 NSCLC = test system: HOP-18 NSCLC
DMS 273 small cell lung = test system: DMS 273 small cell lung
XF 498 CNS = test system: XF 498 CNS
KM20L2 colon = test system: KM20L2 colon
SN12K1 renal = test system: SN12K1 renal
P388/ADR leukemia = test system: P388/ADR leukemia

For Nc1ccn(CC(CO)CC(c2ccccc2)P(=O)(O)O)c(=O)n1 (stereo unspecified), the TGI (LXFL 529 NSCLC) was greater than 100 µM, the TGI (SNB-78 CNS) was greater than 100 µM and the TGI (M19-MEL melanoma) was greater than 100 µM. The GI50 (U251 CNS) was 28.2 µM and > 100 µM, the TGI (U251 CNS) was greater than 100 µM and the TGI (DMS 114 small cell lung) was greater than 100 µM. For the same molecule, the TGI (DLD-1 colon) was greater than 100 µM, the TGI (HOP-18 NSCLC) was greater than 100 µM and the TGI (DMS 273 small cell lung) was greater than 100 µM. The TGI (XF 498 CNS) was greater than 100 µM and the TGI (KM20L2 colon) was greater than 100 µM.

With Nc1ccc(-c2nc3ccc(Cc4ccc5nc(-c6ccc(N)cc6)oc5c4)cc3o2)cc1 the TGI (U251 CNS) was greater than 100 µM.

For N#Cc1nc(NC(=O)c2ccccc2)sc1N, the TGI (U251 CNS) was greater than 10 µM.

CSC1CC2C(CC1(C)SC)C2(C)C (stereo unspecified) showed a TGI (LXFL 529 NSCLC) greater than 100 µM, a TGI (SNB-78 CNS) greater than 100 µM and a TGI (M19-MEL melanoma) greater than 100 µM. For the same molecule, the TGI (U251 CNS) was greater than 100 µM, the TGI (DLD-1 colon) was greater than 100 µM and the TGI (DMS 273 small cell lung) was greater than 100 µM. It also gave a TGI (XF 498 CNS) of 50.8 µM.

Molecule COC(=O)C(CCSc1ccccc1)C(=O)OC has a TGI (U251 CNS) greater than 100 µM.

CC1=C2c3ccccc3N(S(=O)(=O)c3ccccc3)[C@H]2[C@H](C(=O)N2C3CC4CC[C@@]3(CS2(=O)=O)C4(C)C)CC1 (stereo partly specified) was tested, and the TGI (U251 CNS) was greater than 100 µM.

For CCN(CC)CCOCC1CCCN2CCCCC12 (stereo unspecified), the TGI (U251 CNS) was greater than 100 µM.

For CCN1C(=O)C(N=[N+]=[N-])(c2ccccc2)C(=O)c2ccccc21 (stereo unspecified), the TGI (LXFL 529 NSCLC) was greater than 100 µM, the TGI (SNB-78 CNS) was greater than 100 µM and the TGI (M19-MEL melanoma) was greater than 100 µM. For the same molecule, the TGI (U251 CNS) was greater than 100 µM, the TGI (DMS 114 small cell lung) was greater than 100 µM and the TGI (DLD-1 colon) was greater than 100 µM. The TGI (HOP-18 NSCLC) was greater than 100 µM, the TGI (DMS 273 small cell lung) was greater than 100 µM and the TGI (XF 498 CNS) was 33 µM. It also gave a TGI (KM20L2 colon) greater than 100 µM.

CC1=C(c2ccc(C)cc2)NC(=S)C(C)C(c2ccc(C)cc2)=N1 (stereo unspecified) was tested, and the TGI (U251 CNS) was greater than 100 µM.

With O=C1Cc2c(-c3ccccc3)cc(-c3ccc4ccccc4c3)nc2-c2ccccc2N1 the TGI (U251 CNS) was greater than 100 µM.

Molecule CC(C)N(C(=O)c1ccc(NCc2cc(O)ccc2O)cc1)C(C)C has a TGI (U251 CNS) of 32.6 µM.

Molecule CN(C)C(=O)C(F)(F)C(c1ccc(C(F)(F)F)cc1)C1C(=O)N(C)C(=O)N(C)C1=O (stereo unspecified) has a TGI (U251 CNS) greater than 100 µM.

Molecule Cc1ccc(S(=O)(=O)c2ccsc2NC(=O)c2ccccc2)cc1 has a TGI (U251 CNS) greater than 100 µM.

Work on Nc1ccc(-c2nc3ccccc3s2)cc1F yielded a TGI (U251 CNS) greater than 100 µM.

Molecule Oc1c2c(c3c4c1N=CC=4CCN=3)C1(C=C(Br)C(O)C(Br)=C1)CCN2 (stereo unspecified) has a TGI (SNB-78 CNS) of 10.4 µM, a TGI (SN12K1 renal) of 10.7 µM and a TGI (M19-MEL melanoma) of 1.05 µM. For the same molecule, the TGI (U251 CNS) was 5.44 µM, the TGI (DMS 114 small cell lung) was 0.718 µM and the TGI (DLD-1 colon) was 3.95 µM. It also gave a TGI (HOP-18 NSCLC) of 23.5 µM, a TGI (DMS 273 small cell lung) of 3.45 µM and a TGI (P388/ADR leukemia) of 4.81 µM. For the same molecule, the TGI (KM20L2 colon) was 3.26 µM.

With Cc1ccc(Cc2nn(C)c(=O)n2-n2cccc2)cc1 the TGI (U251 CNS) was greater than 100 µM.

O=C(Oc1ccc(OC(Oc2ccccc2)c2ccccc2)cc1)c1ccccc1 (stereo unspecified) gave a TGI (U251 CNS) greater than 100 µM.

For Cc1nc2ccc(S(=O)(=O)Nc3ccccc3Cl)cc2c(=O)n1NC(=O)CNc1ccccc1Cl, the TGI (U251 CNS) was greater than 100 µM.

Molecule NS(=O)(=O)c1ccc(N=Nc2nc3[nH]cnc(=S)c3[nH]2)cc1 has a TGI (U251 CNS) greater than 100 µM.

Molecule ClCCCC1COc2ccccc2O1 (stereo unspecified) has a TGI (U251 CNS) greater than 100 µM.

Work on O=C(/C=C/c1cccs1)c1ccc(Cl)s1 yielded a TGI (U251 CNS) greater than 100 µM.

COc1ccc(/C(Cl)=C(\CNc2ccccn2)c2ccccc2)cc1OC gave a TGI (U251 CNS) greater than 100 µM.

In the case of N#CC1C(=O)NC2=C(CCOc3c2ccc2ccccc32)C1c1ccc(F)cc1 (stereo unspecified), the TGI (U251 CNS) is reported as 24.7 µM.

COc1cc(O)c2c(c1O)C(=O)c1cc(C)ncc1C2=O showed a TGI (LXFL 529 NSCLC) greater than 50 µM, a TGI (SNB-78 CNS) greater than 50 µM and a TGI (M19-MEL melanoma) of 23.8 µM. The TGI (U251 CNS) was 30.7 µM, the TGI (DMS 114 small cell lung) was greater than 50 µM and the TGI (DLD-1 colon) was greater than 50 µM. The TGI (HOP-18 NSCLC) was greater than 50 µM, the TGI (XF 498 CNS) was greater than 50 µM and the TGI (KM20L2 colon) was greater than 50 µM.

For O=C1CSC(c2ccccc2[N+](=O)[O-])N1c1ccc(-n2c(-c3ccccc3)nc3ccccc3c2=O)cc1 (stereo unspecified), the TGI (U251 CNS) was 32.7 µM.

Cc1cn(C2CC(N=[N+]=[N-])C(C(=O)O)O2)c(=O)[nH]c1=O (stereo unspecified) was tested, and the TGI (U251 CNS) was greater than 100 µM.

With CC(=O)O[C@H]1CC[C@@]2(C)C(=CC[C@H]3[C@@H]4C/C(=C\c5ccncc5)[C@H](OC(C)=O)[C@@]4(C)CC[C@@H]32)C1 the TGI (U251 CNS) was 23.1 µM.

With O=C1CCCCCCCCCCC1CN(Cc1ccccc1)Cc1ccccc1 (stereo unspecified) the TGI (U251 CNS) was 49.6 µM.

C[N+]1(CCCC[N+]2(C)CCCCCCC2)CCCCCCC1 was tested, and the TGI (U251 CNS) was greater than 100 µM.

Molecule COc1cc2c(cc1OC)CN1CCc3ccccc3CC1C2 (stereo unspecified) has a TGI (U251 CNS) greater than 100 µM.

COc1ccc(N2C(=O)C3c4[nH]c5cc(Cl)ccc5c4C4CCC(C(C)(C)C)CC4C3C2=O)cc1 (stereo unspecified) showed a TGI (U251 CNS) greater than 100 µM.

CCCCC1=CC1(C#N)[N+](=O)[O-] (stereo unspecified) was tested, and the TGI (U251 CNS) was greater than 100 µM.

For Cc1n(-c2ccccc2)c2c([n+]1Cc1ccc([N+](=O)[O-])cc1)C(=O)c1ccccc1C2=O, the TGI (LXFL 529 NSCLC) was 2.76 µM, the TGI (SNB-78 CNS) was 6.88 µM and the TGI (M19-MEL melanoma) was 2.93 µM. It also gave a TGI (U251 CNS) of 3.35 µM, a TGI (DMS 114 small cell lung) of 1.49 µM and a TGI (DLD-1 colon) of 19.4 µM. For the same molecule, the TGI (HOP-18 NSCLC) was 17.7 µM, the TGI (DMS 273 small cell lung) was 3.87 µM and the TGI (KM20L2 colon) was 9.84 µM.

For COC(=O)c1cn(CCCCO)nn1, the TGI (U251 CNS) was greater than 100 µM.

In the case of Nc1ccc(-c2nc3ccccc3s2)cc1I, the TGI (U251 CNS) is reported as greater than 88.5 µM.

With CCN(CC)C(=O)N[C@@H](Cc1ccccc1)C(=O)NC the TGI (U251 CNS) was greater than 100 µM.
